Test results published in PMC8881573, “Inhibition of SRP-dependent protein secretion by the bacterial alarmone (p)ppGpp” (Nature Communications, 2022).

What was measured:
[1] = molecular target: T1, full-length (Ec)Ffh and (Ec)FtsY-NG (Escherichia coli, UniProt P0AGD7+P10121); experiment: GTPase activity (GTP hydrolysis, HPLC); format: biochemical, E. coli; conditions: alarmone at concentrations equimolar to the GTP substrate (1 mM) or higher; with or without 4.5S RNA, ΔEspP signal peptide, C12E8
T1 construct: GTPase activity of full-length (Ec)Ffh and the NG domain of (Ec)FtsY was assayed; His-tag; His6 (C); made in house; host or cells: E. coli BL21 (DE3)
Description: GTPase activity of full-length (Ec)Ffh and the NG domain of (Ec)FtsY was assayed in a buffer containing 25 mM HEPES-K pH 7.5, 10 mM Mg(OAc)2, 300 mM K(OAc), 1 mM DTT, and 2.5% (v/v) glycerol. The samples contained 5 µM (Ec)Ffh, 5 µM (Ec)FtsY-NG, 6 µM 4.5S RNA, 5 µM ΔEspP (EspP signal peptide sequence: MKK HKR ILA LCF LGL LQS SYS WAK KKK, custom synthesized from Genosphere Biotechnologies (France)[40], and 100 µM C12E8 (octaethylenglykol-monododecylether, Sigma Aldrich)[40] as indicated in figures. Alarmones ppGpp (Jena Bioscience, ≥95% purity) or pppGpp (Jena Bioscience, ≥85% purity) were supplemented in concentrations of 10, 25, 100, 250, 1000, 2500, or 10,000 µM as indicated in the figures. The enzymatic reactions were initiated by the addition of 1 mM GTP (Jena Bioscience, ≥99% purity) and allowed to proceed for 60 min at 37 °C, after which 40 µL double-distilled water were added immediately followed by 150 µL of chloroform. […] The nucleotide content was determined by high-performance liquid chromatography (HPLC) on an Agilent 1260 Infinity system (software: ChemStation Rev. B04.03-SP1) equipped with a Metrosep A Supp 5–150/4.0 column (Metrohm). Ten microliters of sample were injected and nucleotides eluted isocratically at 0.6 mL min^−1 flow rate of 100 mM (NH4)2CO3 pH 9.25 and detected at 260 nm wavelength. […]

(Ec)Ffh-NG = molecular target: T2, (Ec)Ffh-NG (Escherichia coli, UniProt P0AGD7); experiment: Isothermal titration calorimetry (ITC) of nucleotide binding; set-up: species or system E. coli
T2 construct: purified NG domains of (Ec)Ffh, (Ec)FtsY and (Bs)Ffh; His6 (C); made in house; host or cells: E. coli BL21 (DE3)
Description: Ligands and proteins (purified NG domains of (Ec)Ffh, (Ec)FtsY and (Bs)Ffh) were diluted with a buffer containing 20 mM HEPES-Na (pH 7.5), 200 mM NaCl, 20 mM MgCl2 and 20 mM KCl. The NG domains of (Ec)Ffh, (Ec)FtsY and (Bs)Ffh were titrated in the sample-cell at a nominal concentration of 25 µM each. The nucleotides GDP, GTP, ppGpp and pppGpp (Jena Bioscience, Germany) were placed in the syringe and their concentrations were predetermined by absorbance at 252 nm to saturate the protein samples during the titrations. All the measurements were performed at 25 °C with the instrument MicroCal PEAQ-ITC (©Malvern Panalytical) with a method consisting of 13 injections (first 0.4 µL, and the rest 3 µL each) and 150 s of spacing. The raw data (see source) were processed with the MicroCal PEAQ-ITC Analysis Software (©Malvern Panalytical) using the “one set of sites” models.

Ffh-NG/FtsY-NG complex = molecular target: T3, Ffh-NG/FtsY-NG complex (Escherichia coli, UniProt P0AGD7+P10121, DEL297-453); experiment: Analytical size-exclusion chromatography of GMPPNP-dependent Ffh/FtsY complex formation; format: biochemical, E. coli; conditions: 0.25, 0.5 or 1 mM GMPPNP
T3 construct: purified NG domains of (Ec)FtsY and (Ec)Ffh were diluted; His6 (C); made in house; host or cells: E. coli BL21 (DE3)
Description: For the analytical SEC, purified NG domains of (Ec)FtsY and (Ec)Ffh were diluted in a buffer containing 20 mM HEPES (pH 7.5), 200 mM NaCl, 20 mM MgCl2 and 20 mM KCl to a final concentration of 100 µM (Fig. 3g) and 50 µM (Fig. 3h, i) each. Indicated amounts of nucleotides were added simultaneously, and the solution was incubated for 30 min at room temperature. 100 µL were then injected at 4 °C on to a pre-equilibrated S200 300/10 GL analytical size-exclusion column (GE Healthcare, München, Germany) on an Äkta system (UNICORN 7.6; Cytiva). Data has been plotted using GraphPad Prism (GraphPad Prism Corp. San Diego).

[2] = (p)ppGpp concentrations exceeding those of GMPPNP by two-fold
[3] = at equal (p)ppGpp/GMPPNP ratios

T3 sequence (P0AGD7 1-296, stated change not applied): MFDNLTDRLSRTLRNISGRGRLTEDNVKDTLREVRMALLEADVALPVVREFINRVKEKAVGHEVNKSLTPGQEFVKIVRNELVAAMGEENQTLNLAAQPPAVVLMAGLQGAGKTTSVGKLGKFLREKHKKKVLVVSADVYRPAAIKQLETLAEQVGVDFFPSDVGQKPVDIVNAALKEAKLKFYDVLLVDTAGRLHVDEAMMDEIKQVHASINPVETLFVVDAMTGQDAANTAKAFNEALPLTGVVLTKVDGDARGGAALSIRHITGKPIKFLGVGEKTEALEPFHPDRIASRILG
T3 sequence (P10121 197-497, stated change not applied): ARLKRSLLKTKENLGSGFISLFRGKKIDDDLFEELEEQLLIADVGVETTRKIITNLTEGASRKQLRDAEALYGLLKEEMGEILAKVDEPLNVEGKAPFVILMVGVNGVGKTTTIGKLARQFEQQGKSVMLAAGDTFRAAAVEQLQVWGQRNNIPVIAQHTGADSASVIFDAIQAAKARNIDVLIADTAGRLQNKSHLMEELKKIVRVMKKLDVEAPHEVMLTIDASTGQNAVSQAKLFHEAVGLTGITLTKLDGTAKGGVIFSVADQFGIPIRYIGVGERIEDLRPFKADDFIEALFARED
T1 sequence (P0AGD7 whole entry, the tested form may be a part): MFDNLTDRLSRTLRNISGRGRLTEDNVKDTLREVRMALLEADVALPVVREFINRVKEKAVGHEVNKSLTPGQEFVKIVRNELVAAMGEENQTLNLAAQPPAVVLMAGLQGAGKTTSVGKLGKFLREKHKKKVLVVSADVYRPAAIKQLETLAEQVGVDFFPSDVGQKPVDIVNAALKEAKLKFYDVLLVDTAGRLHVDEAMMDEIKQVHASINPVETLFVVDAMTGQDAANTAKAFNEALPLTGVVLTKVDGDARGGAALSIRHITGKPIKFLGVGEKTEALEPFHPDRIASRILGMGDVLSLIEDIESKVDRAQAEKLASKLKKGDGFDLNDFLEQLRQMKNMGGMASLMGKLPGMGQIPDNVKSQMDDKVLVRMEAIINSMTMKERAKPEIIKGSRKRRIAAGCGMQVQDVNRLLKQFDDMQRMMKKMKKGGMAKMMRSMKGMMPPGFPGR
T1 sequence (P10121 197-497): as the sequence (P10121 197-497, stated change not applied) above
T2 sequence (P0AGD7 1-296): as the sequence (P0AGD7 1-296, stated change not applied) above

Structure (SMILES) | GTP hydrolysis [1] | Kd ((Ec)Ffh-NG) [µM] | Ffh/FtsY complex formation (Ffh-NG/FtsY-NG complex; [2]) | Ffh/FtsY complex formation (Ffh-NG/FtsY-NG complex; [3])
Nc1nc2c(ncn2[C@@H]2O[C@H](COP(=O)(O)OP(=O)(O)O)[C@@H](OP(=O)(O)OP(=O)(O)O)[C@H]2O)c(=O)[nH]1 [ppGpp] | reduction of GTP hydrolysis | 7.9 ± 1.9 | roughly abolished | half-inhibited
Nc1nc2c(ncn2[C@@H]2O[C@H](COP(=O)(O)OP(=O)(O)OP(=O)(O)O)[C@@H](OP(=O)(O)OP(=O)(O)O)[C@H]2O)c(=O)[nH]1 [pppGpp] | reduction of GTP hydrolysis | 13.9 ± 7.1 | roughly abolished | half-inhibited
